Molecular target: T1, hMC2 receptor (crude hMC2R membranes from CRE-bla-CHO-K1 cells stably expressing hMC2 receptor and hMRAP accessory protein) (Homo sapiens, UniProt Q01718)
T1 construct: crude membrane fractions
Assay: hMC2 membrane binding assay ([125I]ACTH (1-39) Tyr23, SPA)
Conditions: displacement of 0.2 nM [125I]ACTH (1-39) Tyr23 from hMC2R membranes, 1.5 hours at room temperature; read-out: MC2R binding potency
Method in brief: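 Crude membranes from CRE-bla-CHO-K1 cells stably co-expressing hMC2R and hMRAP, premixed with WGA PVT SPA beads in pH 7.4 HEPES buffer (5 mM MgCl2, 1 mM CaCl2, 0.20% BSA, protease inhibitors). Compounds compete with [125I]ACTH(1-39) Tyr23, read by scintillation. Ki from non-linear regression.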

T1 sequence (Q01718 whole entry): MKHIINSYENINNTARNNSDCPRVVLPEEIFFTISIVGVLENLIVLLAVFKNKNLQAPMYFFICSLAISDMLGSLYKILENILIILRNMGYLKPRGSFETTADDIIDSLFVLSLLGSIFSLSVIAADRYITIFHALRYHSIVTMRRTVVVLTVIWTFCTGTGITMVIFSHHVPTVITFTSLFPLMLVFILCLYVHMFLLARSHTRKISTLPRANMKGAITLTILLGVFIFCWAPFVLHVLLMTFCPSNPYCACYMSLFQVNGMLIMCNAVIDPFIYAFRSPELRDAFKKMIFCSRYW
T1 sequence (Q8TCY5 whole entry partner): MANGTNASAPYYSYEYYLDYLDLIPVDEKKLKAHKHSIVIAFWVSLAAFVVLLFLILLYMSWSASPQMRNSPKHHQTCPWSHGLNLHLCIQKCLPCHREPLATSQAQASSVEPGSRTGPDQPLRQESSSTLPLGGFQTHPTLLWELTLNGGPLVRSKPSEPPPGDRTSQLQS

| SMILES | Ki |
| --- | --- |
| COc1ccccc1-c1ccc(C2(C(=O)NC[C@H]3CCN3C)CCN(c3ccc(C(F)(F)F)cc3C#N)CC2)cn1 [Compound 1-244, 1-[2-cyano-4-(trifluoromethyl)phenyl]-4-[6-(2-methoxyphenyl)pyridin-3-yl]-N-{[(2R)-1-methylazetidin-2-yl]methyl}piperidine-4-carboxamide] | < 10 nM |
| COc1ccccc1-c1ccc(C2(C(=O)NCCN3CCC3)CCN(c3ccc(C(F)(F)F)cc3C#N)CC2)cn1 [Compound 1-245, N-[2-(azetidin-1-yl)ethyl]-1-[2-cyano-4-(trifluoromethyl)phenyl]-4-[6-(2-methoxyphenyl)pyridin-3-yl]piperidine-4-carboxamide] | < 10 nM |
| COc1ccccc1-c1ccc(C2(C(=O)NC[C@@H]3C[C@H](F)CN3)CCN(c3ccc(C(F)(F)F)cc3C#N)CC2)cn1 [Compound 1-246, 1-[2-cyano-4-(trifluoromethyl)phenyl]-N-{[(2S,4S)-4-fluoropyrrolidin-2-yl]methyl}-4-[6-(2-methoxyphenyl)pyridin-3-yl]piperidine-4-carboxamide] | < 10 nM |
| COc1ccccc1-c1ccc(C2(C(=O)NC[C@@H]3C[C@@H](F)CN3)CCN(c3ccc(C(F)(F)F)cc3C#N)CC2)cn1 [Compound 1-247, 1-[2-cyano-4-(trifluoromethyl)phenyl]-N-{[(2S,4R)-4-fluoropyrrolidin-2-yl]methyl}-4-[6-(2-methoxyphenyl)pyridin-3-yl]piperidine-4-carboxamide] | < 10 nM |
| COc1ccccc1-c1ccc(C2(C(=O)NC[C@@H]3C[C@H](F)CN3C)CCN(c3ccc(C(F)(F)F)cc3C#N)CC2)cn1 [Compound 1-249, 1-[2-cyano-4-(trifluoromethyl)phenyl]-N-{[(2S,4S)-4-fluoro-1-methylpyrrolidin-2-yl]methyl}-4-[6-(2-methoxyphenyl)pyridin-3-yl]piperidine-4-carboxamide] | < 10 nM |
| COc1ccccc1-c1ccc(C2(C(=O)NC[C@@H]3C[C@@H](F)CN3C)CCN(c3ccc(C(F)(F)F)cc3C#N)CC2)cn1 [Compound 1-250, 1-[2-cyano-4-(trifluoromethyl)phenyl]-N-{[(2S,4R)-4-fluoro-1-methylpyrrolidin-2-yl]methyl}-4-[6-(2-methoxyphenyl)pyridin-3-yl]piperidine-4-carboxamide] | < 10 nM |
| COc1ccccc1-c1ccc(C2(C(=O)NCCN(C)C)CCN(c3ccc(C(F)(F)F)cc3F)CC2)cn1 [Compound 1-254, N-[2-(dimethylamino)ethyl]-1-[2-fluoro-4-(trifluoromethyl)phenyl]-4-[6-(2-methoxyphenyl)pyridin-3-yl]piperidine-4-carboxamide] | < 10 nM |
| COc1ccccc1-c1ccc(C2(C(=O)NCCN(C)C)CCN(c3ccc(C(F)(F)F)cc3Cl)CC2)cn1 [Compound 1-255, 1-[2-chloro-4-(trifluoromethyl)phenyl]-N-[2-(dimethylamino)ethyl]-4-[6-(2-methoxyphenyl)pyridin-3-yl]piperidine-4-carboxamide] | < 10 nM |
| CNCCNC(=O)C1(c2ccc(-c3ccccc3OC)nc2)CCN(c2ccc(C(F)(F)F)cc2F)CC1 [Compound 1-256, 1-[2-fluoro-4-(trifluoromethyl)phenyl]-4-[6-(2-methoxyphenyl)pyridin-3-yl]-N-[2-(methylamino)ethyl]piperidine-4-carboxamide] | < 10 nM |
| CNCCNC(=O)C1(c2ccc(-c3ccccc3OC)nc2)CCN(c2ccc(C(F)(F)F)cc2Cl)CC1 [Compound 1-257, 1-[2-chloro-4-(trifluoromethyl)phenyl]-4-[6-(2-methoxyphenyl)pyridin-3-yl]-N-[2-(methylamino)ethyl]piperidine-4-carboxamide] | < 10 nM |
| CN(C)CC1(NC(=O)C2(c3ccc(-c4cccn4C)nc3)CCN(c3ccc(C(F)(F)F)cc3C#N)CC2)COC1 [Compound 1-262, 1-[2-cyano-4-(trifluoromethyl)phenyl]-N-{3-[(dimethylamino)methyl]oxetan-3-yl}-4-[6-(1-methyl-1H-pyrrol-2-yl)pyridin-3-yl]piperidine-4-carboxamide] | < 10 nM |

More lines, now with the values ahead:

| Ki | SMILES |
| --- | --- |
| 10 to 100 nM | Cn1cccc1-c1ccc(C2(C(=O)N[C@H]3C[C@@H](N(C)C)C3)CCN(c3ccc(C(F)(F)F)cc3C#N)CC2)cn1 [Compound 1-239, 1-[2-cyano-4-(trifluoromethyl)phenyl]-4-[6-(1-methyl-1H-pyrrol-2-yl)pyridin-3-yl]-N-[(1S,3S)-3-(dimethylamino)cyclobutyl]piperidine-4-carboxamide] |
| 10 to 100 nM | Cn1cccc1-c1ccc(C2(C(=O)N[C@H]3C[C@H](N(C)C)C3)CCN(c3ccc(C(F)(F)F)cc3C#N)CC2)cn1 [Compound 1-240, 1-[2-cyano-4-(trifluoromethyl)phenyl]-4-[6-(1-methyl-1H-pyrrol-2-yl)pyridin-3-yl]-N-[(1R,3R)-3-(dimethylamino)cyclobutyl]piperidine-4-carboxamide] |
| < 10 nM | CN1CC[C@H]1CNC(=O)C1(c2ccc(-c3cccn3C)nc2)CCN(c2ccc(C(F)(F)F)cc2C#N)CC1 [Compound 1-241, 1-[2-cyano-4-(trifluoromethyl)phenyl]-4-[6-(1-methyl-1H-pyrrol-2-yl)pyridin-3-yl]-N-{[(2S)-1-methylazetidin-2-yl]methyl}piperidine-4-carboxamide] |
| < 10 nM | COc1ccccc1-c1ccc(C2(C(=O)N[C@@H]3CN(C)C[C@@H]3F)CCN(c3ccc(C(F)(F)F)cc3C#N)CC2)cn1 [Compound 1-242, 1-[2-cyano-4-(trifluoromethyl)phenyl]-N-[(3R,4S)-4-fluoro-1-methylpyrrolidin-3-yl]-4-[6-(2-methoxyphenyl)pyridin-3-yl]piperidine-4-carboxamide] |
| < 10 nM | COc1ccccc1-c1ccc(C2(C(=O)N[C@@H]3CN(C)C[C@H]3F)CCN(c3ccc(C(F)(F)F)cc3C#N)CC2)cn1 [Compound 1-243, 1-[2-cyano-4-(trifluoromethyl)phenyl]-N-[(3R,4R)-4-fluoro-1-methylpyrrolidin-3-yl]-4-[6-(2-methoxyphenyl)pyridin-3-yl]piperidine-4-carboxamide] |
| < 10 nM | Cn1cccc1-c1ccc(C2(C(=O)NCCN3CCC3)CCN(c3ccc(C(F)(F)F)cc3C#N)CC2)cn1 [Compound 1-248, N-[2-(azetidin-1-yl)ethyl]-1-[2-cyano-4-(trifluoromethyl)phenyl]-4-[6-(1-methyl-1H-pyrrol-2-yl)pyridin-3-yl]piperidine-4-carboxamide] |
| < 10 nM | CN1CC[C@](C)(NC(=O)C2(c3ccc(-c4cccn4C)nc3)CCN(c3ccc(C(F)(F)F)cc3C#N)CC2)C1 [Compound 1-253, 1-[2-cyano-4-(trifluoromethyl)phenyl]-N-[(3S)-1,3-dimethylpyrrolidin-3-yl]-4-[6-(1-methyl-1H-pyrrol-2-yl)pyridin-3-yl]piperidine-4-carboxamide] |
| < 10 nM | C[C@H](CN(C)C)NC(=O)C1(c2ccc(-c3cccn3C)nc2)CCN(c2ccc(C(F)(F)F)cc2C#N)CC1 [Compound 1-260, 1-[2-cyano-4-(trifluoromethyl)phenyl]-N-[(2R)-1-(dimethylamino)propan-2-yl]-4-[6-(1-methyl-1H-pyrrol-2-yl)pyridin-3-yl]piperidine-4-carboxamide] |
| < 10 nM | C[C@@H](CN(C)C)NC(=O)C1(c2ccc(-c3cccn3C)nc2)CCN(c2ccc(C(F)(F)F)cc2C#N)CC1 [Compound 1-261, 1-[2-cyano-4-(trifluoromethyl)phenyl]-N-[(2S)-1-(dimethylamino)propan-2-yl]-4-[6-(1-methyl-1H-pyrrol-2-yl)pyridin-3-yl]piperidine-4-carboxamide] |
| 10 to 100 nM | CN(C)C1(CNC(=O)C2(c3ccc(-c4cccn4C)nc3)CCN(c3ccc(C(F)(F)F)cc3C#N)CC2)CC1 [Compound 1-263, 1-[2-cyano-4-(trifluoromethyl)phenyl]-N-{[1-(dimethylamino)cyclopropyl]methyl}-4-[6-(1-methyl-1H-pyrrol-2-yl)pyridin-3-yl]piperidine-4-carboxamide] |
| 10 to 100 nM | CN(C)[C@@H]1COC[C@H]1NC(=O)C1(c2ccc(-c3cccn3C)nc2)CCN(c2ccc(C(F)(F)F)cc2C#N)CC1 [Compound 1-264, 1-[2-cyano-4-(trifluoromethyl)phenyl]-N-[(3S,4S)-4-(dimethylamino)oxolan-3-yl]-4-[6-(1-methyl-1H-pyrrol-2-yl)pyridin-3-yl]piperidine-4-carboxamide] |
| < 10 nM | CCN(C)CCNC(=O)C1(c2ccc(-c3cccn3C)nc2)CCN(c2ccc(C(F)(F)F)cc2C#N)CC1 [Compound 1-265, 1-[2-cyano-4-(trifluoromethyl)phenyl]-N-{2-[ethyl(methyl)amino]ethyl}-4-[6-(1-methyl-1H-pyrrol-2-yl)pyridin-3-yl]piperidine-4-carboxamide] |
| < 10 nM | CN(CCNC(=O)C1(c2ccc(-c3cccn3C)nc2)CCN(c2ccc(C(F)(F)F)cc2C#N)CC1)C1CC1 [Compound 1-266, 1-[2-cyano-4-(trifluoromethyl)phenyl]-N-{2-[cyclopropyl(methyl)amino]ethyl}-4-[6-(1-methyl-1H-pyrrol-2-yl)pyridin-3-yl]piperidine-4-carboxamide] |
| < 10 nM | CN1C[C@@H](O)[C@H](NC(=O)C2(c3ccc(-c4cccn4C)nc3)CCN(c3ccc(C(F)(F)F)cc3C#N)CC2)C1 [Compound 1-269, 1-[2-cyano-4-(trifluoromethyl)phenyl]-N-[(3R,4R)-4-hydroxy-1-methylpyrrolidin-3-yl]-4-[6-(1-methyl-1H-pyrrol-2-yl)pyridin-3-yl]piperidine-4-carboxamide] |
| < 10 nM | CN1C[C@H](NC(=O)C2(c3ccc(-c4cccn4C)nc3)CCN(c3ccc(C(F)(F)F)cc3C#N)CC2)[C@@H](O)C1 [Compound 1-270, 1-[2-cyano-4-(trifluoromethyl)phenyl]-N-[(3S,4S)-4-hydroxy-1-methylpyrrolidin-3-yl]-4-[6-(1-methyl-1H-pyrrol-2-yl)pyridin-3-yl]piperidine-4-carboxamide] |

Source: patent US12492181B2, “Gem-disubstituted piperidine melanocortin subtype-2 receptor (MC2R) antagonists and uses thereof” (Crinetics Pharmaceuticals, Inc., priority 2019, dated 2025)
